Assay results taken from patent US20090069370A1, “AZACYCLYLISOQUINOLINONE AND ISOINDOLINONE DERIVATIVES AS HISTAMINE-3 ANTAGONISTS” (Wyeth, priority 2007, published 2009).
Counter-ions that a name gives are not always drawn.

| melting point | SMILES |
| --- | --- |
| 220 to 221 °C | CNC(=O)c1ccc(-c2ccc3c(c2)CCN([C@@H]2CCN(C4CCC4)C2)C3=O)c(F)c1 (as salt: hydrochloride) [Example 75, 4-{2-[(3R)-1-cyclobutylpyrrolidin-3-yl]-1-oxo-1,2,3,4-tetrahydroisoquinolin-6-yl}-3-fluoro-N-methylbenzamide] |
| 265 to 266 °C | CNC(=O)c1ccc(-c2ccc3c(c2)CCN([C@H]2CCN(C4CCC4)C2)C3=O)cc1.Cl [Example 90, (R)-4-(2-(1-cyclobutylpyrrolidin-3-yl)-1-oxo-1,2,3,4-tetrahydro-isoquinolin-6-yl)-N-methylbenzamide hydrochloride] |
| > 300 °C | CC(C)N1CCC(N2CCc3cc(-c4ccc(C(=O)N5CCCC5)cc4)ccc3C2=O)CC1 (as salt: hydrochloride) [Example 67, 2-(1-isopropylpiperidin-4-yl)-6-[4-(pyrrolidin-1-ylcarbonyl)phenyl]-3,4-dihydroisoquinolin-1(2H)-one] |
| 279 to 281 °C | O=C(c1ccc(-c2ccc3c(c2)CCN([C@@H]2CCN(C4CCCCC4)C2)C3=O)cc1)N1CCCC1 (as salt: hydrochloride) [Example 57, 2-[(3R)-1-cyclohexylpyrrolidin-3-yl]-6-[4-(pyrrolidin-1-ylcarbonyl)phenyl]-3,4-dihydroisoquinolin-1(2H)-one] |
| 289 to 291 °C | O=C(NC1CCCC1)c1ccc(COc2ccc3c(c2)CCN(C2CCN(C4CCC4)CC2)C3=O)cc1 (as salt: hydrochloride) [Example 21, 4-({[2-(1-Cyclobutylpiperidin-4-yl)-1-oxo-1,2,3,4-tetrahydroisoquinolin-6-yl]oxy}methyl)-N-cyclopentylbenzamide] |
| 203 to 205 °C | O=C(c1cccc(-c2ccc3c(c2)CCN([C@@H]2CCN(C4CCC4)C2)C3=O)c1)N1CCCC1 (as salt: hydrochloride) [Example 52, 2-[(3R)-1-cyclobutylpyrrolidin-3-yl]-6-[3-(pyrrolidin-1-ylcarbonyl)phenyl]-3,4-dihydroisoquinolin-1(2H)-one] |
| 302 to 303 °C | CNC(=O)c1ccc(COc2ccc3c(c2)CCN(C2CCN(C4CCC4)CC2)C3=O)cc1 (as salt: hydrochloride) [Example 16, 4-({[2-(1-Cyclobutylpiperidin-4-yl)-1-oxo-1,2,3,4-tetrahydroisoquinolin-6-yl]oxy}methyl)-N-methylbenzamide] |
| 320 °C (dec.) | N#Cc1ccc(-c2ccc3c(c2)CN(C2CCN(C4CCC4)CC2)C3=O)cc1 (as salt: hydrochloride) [Example 28, 4-[2-(1-Cyclobutylpiperidin-4-yl)-1-oxo-2,3-dihydro-1H-isoindol-5-yl]benzonitrile] |
| 262 to 264 °C | CN(C)C(=O)c1ccc(Oc2ccc3c(c2)CCN(C2CCN(C4CCC4)CC2)C3=O)cc1 (as salt: hydrochloride) [Example 10, 4-{[2-(1-Cyclobutylpiperidin-4-yl)-1-oxo-1,2,3,4-tetrahydroisoquinolin-6-yl]oxy}-N,N-dimethylbenzamide] |
| 254 to 256 °C | O=C(c1ccc(-c2ccc3c(c2)CCN([C@@H]2CCN(Cc4ccco4)C2)C3=O)cc1)N1CCCC1 (as salt: hydrochloride) [Example 61, 2-[(3R)-1-(furan-2-ylmethyl)pyrrolidin-3-yl]-6-[4-(pyrrolidin-1-ylcarbonyl)phenyl]-3,4-dihydroisoquinolin-1(2H)-one] |
| 268 to 272 °C | CCNC(=O)c1ccc(-c2ccc3c(c2)CCN([C@@H]2CCN(C4CCC4)C2)C3=O)cc1 (as salt: hydrochloride) [Example 45, 4-{2-[(3R)-1-cyclobutylpyrrolidin-3-yl]-1-oxo-1,2,3,4-tetrahydroisoquinolin-6-yl}-N-ethylbenzamide] |
| > 230 °C | CN1CC[C@@H](N2CCc3cc(-c4ccc(C(=O)N5CCCC5)cc4)ccc3C2=O)C1 (as salt: hydrochloride) [Example 55, 2-[(3R)-1-methylpyrrolidin-3-yl]-6-[4-(pyrrolidin-1-ylcarbonyl)phenyl]-3,4-dihydroisoquinolin-1(2H)-one] |
| 223 to 224 °C | CNC(=O)c1ccc(Oc2ccc3c(c2)CCN([C@@H]2CCN(C4CCCC4)C2)C3=O)cc1 (as salt: hydrochloride) [Example 37, 4-({2-[(3R)-1-cyclopentylpyrrolidin-3-yl]-1-oxo-1,2,3,4-tetrahydroisoquinolin-6-yl}oxy)-N-methylbenzamide] |
| 235 to 236 °C | O=C(c1ccc(-c2ccc3c(c2)CCN([C@@H]2CCN(C4CCC4)C2)C3=O)cc1F)N1CCCC1 (as salt: hydrochloride) [Example 48, 2-[(3R)-1-cyclobutylpyrrolidin-3-yl]-6-[3-fluoro-4-(pyrrolidin-1-ylcarbonyl)phenyl]-3,4-dihydroisoquinolin-1(2H)-one] |
| 253 to 255 °C | O=C(c1ccc(Oc2ccc3c(c2)CCN(C2CCN(C4CCC4)CC2)C3=O)cc1)N1CCCC1 (as salt: hydrochloride) [Example 12, 2-(1-Cyclobutylpiperidin-4-yl)-6-[4-(pyrrolidin-1-ylcarbonyl)phenoxy]-3,4-dihydroisoquinolin-1(2H)-one] |
| > 255 °C | CCNC(=O)c1ccc(-c2ccc3c(c2)CCN([C@@H]2CCN(C(C)C)C2)C3=O)c(F)c1 (as salt: hydrochloride) [Example 86, N-ethyl-3-fluoro-4-{2-[(3R)-1-isopropylpyrrolidin-3-yl]-1-oxo-1,2,3,4-tetrahydroisoquinolin-6-yl}benzamide] |
| 260.5 to 262 °C | O=C(c1ccc(-c2ccc3c(c2)CCN([C@@H]2CCCN(C4CCC4)C2)C3=O)cc1)N1CCCC1 (as salt: hydrochloride) [Example 70, 2-[(3R)-1-cyclobutylpiperidin-3-yl]-6-[4-(pyrrolidin-1-ylcarbonyl)phenyl]-3,4-dihydroisoquinolin-1(2H)-one] |
| 300 to 302 °C | CCCN1CCC(N2Cc3cc(-c4ccc(C#N)cc4)ccc3C2=O)CC1 (as salt: hydrochloride) [Example 25, 4-[1-Oxo-2-(1-propylpiperidin-4-yl)-2,3-dihydro-1H-isoindol-5-yl]benzonitrile] |
| 124 to 125 °C | O=C(NC1CCCC1)c1ccc2c(c1)CCN([C@@H]1CCN(C3CCC3)C1)C2=O (as salt: hydrochloride) [Example 88, 2-[(3R)-1-cyclobutylpyrrolidin-3-yl]-N-cyclopentyl-1-oxo-1,2,3,4-tetrahydroisoquinoline-6-carboxamide hydrochloride] |
| 178 to 180 °C | CCNC(=O)c1ccc(Oc2ccc3c(c2)CCN([C@@H]2CCN(C4CCCC4)C2)C3=O)cc1 (as salt: hydrochloride) [Example 38, 4-({2-[(3R)-1-cyclopentylpyrrolidin-3-yl]-1-oxo-1,2,3,4-tetrahydroisoquinolin-6-yl}oxy)-N-ethylbenzamide] |
| 211 to 212 °C | O=C(c1ccc(-c2ccc3c(c2)CCN([C@@H]2CCN(C4CCC4)C2)C3=O)c(F)c1)N1CCCC1 (as salt: hydrochloride) [Example 79, 2-[(3R)-1-cyclobutylpyrrolidin-3-yl]-6-[2-fluoro-4-(pyrrolidin-1-ylcarbonyl)phenyl]-3,4-dihydroisoquinolin-1(2H)-one] |
| 215 to 217 °C | O=C(c1ccc(-c2ccc3c(c2)CCN([C@@H]2CCN(C4CCC4)C2)C3=O)cc1)N1CCCC1 (as salt: hydrochloride) [Example 47, 2-[(3R)-1-cyclobutylpyrrolidin-3-yl]-6-[4-(pyrrolidin-1-ylcarbonyl)phenyl]-3,4-dihydroisoquinolin-1(2H)-one] |
| > 300 °C | O=C(c1ccc(-c2ccc3c(c2)CCN(C2CCN(C4CCCC4)CC2)C3=O)cc1)N1CCCC1 (as salt: hydrochloride) [Example 66, 2-(1-cyclopentylpiperidin-4-yl)-6-[4-(pyrrolidin-1-ylcarbonyl)phenyl]-3,4-dihydroisoquinolin-1(2H)-one] |
| 220 to 221 °C | O=C(c1ccc(-c2ccc3c(c2)CN([C@@H]2CCN(C4CCC4)C2)C3=O)cc1)N1CCCC1 (as salt: hydrochloride) [Example 92, (R)-2-(1-cyclobutylpyrrolidin-3-yl)-5-(4-(pyrrolidine-1-carbonyl)-phenyl)isoindolin-1-one hydrochloride] |
| > 230 °C | O=C(NC1CCC1)c1ccc(-c2ccc3c(c2)CCN([C@@H]2CCN(C4CCC4)C2)C3=O)c(F)c1 (as salt: hydrochloride) [Example 74, N-cyclobutyl-4-{2-[(3R)-1-cyclobutylpyrrolidin-3-yl]-1-oxo-1,2,3,4-tetrahydroisoquinolin-6-yl}-3-fluorobenzamide] |
| > 300 °C | O=C(NC1CCC1)c1ccc(Oc2ccc3c(c2)CCN(C2CCN(C4CCC4)CC2)C3=O)cc1 (as salt: hydrochloride) [Example 8, N-Cyclobutyl-4-{[2-(1-cyclobutylpiperidin-4-yl)-1-oxo-1,2,3,4-tetrahydroisoquinolin-6-yl]oxy}benzamide] |
| 263 to 265 °C | CNC(=O)c1ccc(-c2ccc3c(c2)CCN([C@@H]2CCN(C4CCC4)C2)C3=O)cc1 (as salt: hydrochloride) [Example 44, 4-{2-[(3R)-1-cyclobutylpyrrolidin-3-yl]-1-oxo-1,2,3,4-tetrahydroisoquinolin-6-yl}-N-methylbenzamide] |
| 322 to 323 °C | CN1CCC(N2Cc3cc(-c4ccc(C#N)cc4)ccc3C2=O)CC1 (as salt: hydrochloride) [Example 23] |
| > 300 °C | O=C(c1ccc(-c2ccc3c(c2)CCN(C2CCN(C4CCC4)CC2)C3=O)cc1)N1CCCC1 (as salt: hydrochloride) [Example 65, 2-(1-cyclobutylpiperidin-4-yl)-6-[4-(pyrrolidin-1-ylcarbonyl)phenyl]-3,4-dihydroisoquinolin-1(2H)-one] |
| 209 to 210 °C | CN(C)C(=O)c1ccc(-c2ccc3c(c2)CCN([C@@H]2CCN(C4CCC4)C2)C3=O)c(F)c1 (as salt: hydrochloride) [Example 78, 4-{2-[(3R)-1-cyclobutylpyrrolidin-3-yl]-1-oxo-1,2,3,4-tetrahydroisoquinolin-6-yl}-3-fluoro-N,N-dimethylbenzamide] |
